Reference: patent US10654834B2 (Venenum Biodesign, LLC, priority 2016, dated 2020)

Columns and labels:
human TGR5 receptor = biological target: T1, human TGR5 receptor (Homo sapiens, UniProt Q8TDU6); test: Human TGR5 cAMP production assay (hTGR5-CHO cells, DiscoveRx cAMP XS+ kit); assay type: cell-based; conditions: luminescent cAMP assay, read-out: Human TGR5 Lum. cAMP Activity (EC50)
T1 construct: host or cells: CHO-K1 (hTGR5-CHO)
T1 sequence (Q8TDU6 1-330): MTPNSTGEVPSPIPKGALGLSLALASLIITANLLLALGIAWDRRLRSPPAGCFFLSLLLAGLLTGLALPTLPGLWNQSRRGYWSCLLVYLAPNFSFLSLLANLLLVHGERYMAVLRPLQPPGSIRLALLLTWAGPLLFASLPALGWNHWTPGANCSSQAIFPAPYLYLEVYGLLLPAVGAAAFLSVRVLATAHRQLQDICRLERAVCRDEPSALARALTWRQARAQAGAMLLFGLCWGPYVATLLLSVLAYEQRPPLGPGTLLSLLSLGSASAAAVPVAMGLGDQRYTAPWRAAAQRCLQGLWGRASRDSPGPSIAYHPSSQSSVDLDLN
Procedure, shortened: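 EC50 values come from luminescent enzyme-complementation cAMP detection, read after overnight incubation. Beforehand, hTGR5-expressing CHO-K1 cells with IBMX and anti-cAMP antibody were exposed 1 h at room temperature to serially diluted (half-log) compounds.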

mouse TGR5 receptor = biological target: T2, mouse TGR5 receptor (Mus musculus, UniProt Q80SS6); test: Mouse TGR5 luminescent cAMP production assay (HEK293-EBNA cells, DiscoveRx cAMP XS+ kit); assay type: cell-based; conditions: HEK293-EBNA cells overexpressing mouse TGR5, luminescent cAMP assay; read-out: Mouse TGR5 Lum. cAMP Activity (EC50)
T2 construct: host or cells: HEK293-EBNA (293 c18, ATCC CRL10852)
T2 sequence (Q80SS6 1-329): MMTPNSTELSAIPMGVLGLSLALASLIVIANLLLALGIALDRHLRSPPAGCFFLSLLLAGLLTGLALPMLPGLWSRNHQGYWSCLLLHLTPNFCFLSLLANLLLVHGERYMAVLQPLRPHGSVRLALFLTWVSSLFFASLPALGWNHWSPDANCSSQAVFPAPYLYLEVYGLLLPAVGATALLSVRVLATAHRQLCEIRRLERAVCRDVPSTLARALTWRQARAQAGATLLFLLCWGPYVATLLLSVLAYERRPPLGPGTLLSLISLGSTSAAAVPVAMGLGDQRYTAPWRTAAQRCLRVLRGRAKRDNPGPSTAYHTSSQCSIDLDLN
Method: Mouse TGR5 cAMP Production Assay
Compounds of the present invention were evaluated for their ability to induce cAMP production in HEK-EBNA cells overexpressing the mouse TGR5 receptor. Human embryonic kidney cells (HEK293-EBNA) stably expressing mouse TGR5 receptor were established using the following procedure. Specifically, a commercially obtained gene encoding mouse TGR5 (accession number BC116914) from Thermo Scientific (Waltham, Mass.) was cloned into an episomal expression vector. The resulting expression plasmid was then transfected into 293 c18 (ATCC® CRL10852™) cells, which express the Epstein-Barr virus nuclear antigen EBNA1 and can support the replication of episomal vectors. Selection for the plasmid was maintained with Hygromycin B. Cells were cultured and maintained in DMEM (Sigma; cat #6429) supplemented with 10% Fetal Bovine Serum, 1% penicillin/streptomycin, 2 mM L-alanine L-glutamine (GlutaMax), and 250 μg/mL Hygromycin.
We developed two cAMP production assays.
(i) Luminescent cAMP Production Assay
In this first cAMP production assay, the cAMP production was measured using DiscoveRx's cAMP XS+ kit following the manufacturer's recommended protocol. Briefly, HEK293-EBNA cells stably overexpressing mouse TGR5 were harvested using non-enzymatic cell dissociation buffer (Sigma-Aldrich, St. Louis, Mo.), spun down, then resuspended in serum-free DMEM with 500 μM IBMX at a density of 1.25×10^6 cells/mL. 500 μL of cAMP antibody solution was added to 500 μL of cell suspension and incubated at room temperature for 20 min.
Test compounds were serially diluted (half-log dilutions) in DMSO and then further diluted 1:50 in PBS, 10 mM HEPES buffer. 2 μL of serially diluted compound was added to a 384-well low volume plate (Greiner cat #784075) and centrifuged briefly. 2 μl of the cell/cAMP antibody mixture was then added to each compound-containing well and allowed to incubate at room temperature for one (1) hour. Following incubation, the XS+ kits' ED/Lysis/CL Substrate Working Solution was prepared following the manufacturer's recommended protocol and 4 μL was added to each well of the plate. The plate was then incubated for one (1) hour at room temperature. Following incubation, 4 μL of (Enzyme Acceptor) EA reagent was added to the plate and allowed to incubate overnight at room temperature. Luminescent signal was then detected using the Viewlux instrument (PerkinElmer, Waltham, Mass.).
In Table 52, EC50 values for both human and mouse cells were determined according to the TGR5 cAMP assays described above. […]

SMILES | EC50 (human TGR5 receptor) | EC50 (mouse TGR5 receptor)
CNc1cc(N2CCC[C@@H](C(=O)NCCc3ccc(C(F)(F)F)cc3)C2)nc(C(F)(F)F)n1 [Compound 321, (R)-1-(6-(methylamino)-2-(trifluoromethyl)pyrimidin-4-yl)-N-(4-(trifluoromethyl)phenethyl)piperidine-3-carboxamide] | 0.1 to 0.999 µM | 0.1 to 0.999 µM
COCCOc1cc(N2CCC[C@H]2C(=O)NCCc2ccc(C(F)(F)F)cc2)nc(C(F)(F)F)n1 [Compound 42, (S)-1-(6-(2-methoxyethoxy)-2-(trifluoromethyl)pyrimidin-4-yl)-N-(4-(trifluoromethyl)phenethyl)pyrrolidine-2-carboxamide] | 0.1 to 0.999 µM | 0.1 to 0.999 µM
N#Cc1ccc(CCNC(=O)[C@@H]2CCCN2c2cc(-c3ccc4[nH]ccc4c3)nc(C(F)(F)F)n2)cc1 [Compound 157, (S)-1-(6-(1H-indol-5-yl)-2-(trifluoromethyl)pyrimidin-4-yl)-N-(4-cyanophenethyl)pyrrolidine-2-carboxamide] | 0.1 to 0.999 µM | < 0.1 µM
O=C(NCCc1ccc(C(F)(F)F)cc1)[C@@H]1CCCN(c2cc(NCCO)nc(C(F)(F)F)n2)C1 [Compound 323, (R)-1-(6-((2-hydroxyethyl)amino)-2-(trifluoromethyl)pyrimidin-4-yl)-N-(4-(trifluoromethyl)phenethyl)piperidine-3-carboxamide] | 0.1 to 0.999 µM | 0.1 to 0.999 µM
N#Cc1ccc(CCNC(=O)[C@@H]2CCN2c2cc(-c3cccnc3)nc(C(F)(F)F)n2)cc1 [Compound 305, (S)-N-(4-cyanophenethyl)-1-(6-(pyridin-3-yl)-2-(trifluoromethyl)pyrimidin-4-yl)azetidine-2-carboxamide] | 1 to 30 µM | 0.1 to 0.999 µM
N#Cc1ccc(CCNC(=O)[C@@H]2CCN2c2cc(-c3ccccn3)nc(C(F)(F)F)n2)cc1 [Compound 306, (S)-N-(4-cyanophenethyl)-1-(6-(pyridin-2-yl)-2-(trifluoromethyl)pyrimidin-4-yl)azetidine-2-carboxamide] | 0.1 to 0.999 µM | 0.1 to 0.999 µM
O=C(NCCc1ccc(C(F)(F)F)cc1)[C@@H]1CCCN1c1cc(-c2ccccn2)nc(C(F)(F)F)n1 [Compound 163, (S)-1-(6-(pyridin-2-yl)-2-(trifluoromethyl)pyrimidin-4-yl)-N-(4-(trifluoromethyl)phenethyl)-pyrrolidine-2-carboxamide] | 0.1 to 0.999 µM | 1 to 30 µM
O=C(NCCc1ccc(C(F)(F)F)cc1)[C@@H]1CCCN1c1cc(NCc2cccnc2)nc(C(F)(F)F)n1 [Compound 4] | 1 to 30 µM | 0.1 to 0.999 µM
COc1ccc(Oc2cc(N3CCC[C@H]3C(=O)NCCc3ccc(C#N)cc3)nc(C(F)(F)F)n2)cc1 [Compound 44, (S)-N-(4-cyanophenethyl)-1-(6-(4-methoxyphenoxy)-2-(trifluoromethyl)pyrimidin-4-yl)pyrrolidine-2-carboxamide] | 1 to 30 µM | 0.1 to 0.999 µM
CS(=O)(=O)Nc1cccc(-c2cc(N3CCC[C@H]3C(=O)NCCc3ccc(C#N)cc3)nc(C(F)(F)F)n2)c1 [Compound 153, (S)-N-(4-cyanophenethyl)-1-(6-(3-(methylsulfonamido)phenyl)-2-(trifluoromethyl)pyrimidin-4-yl)pyrrolidine-2-carboxamide] | 1 to 30 µM | 0.1 to 0.999 µM

Other lines, results leading:

EC50 (human TGR5 receptor) | EC50 (mouse TGR5 receptor) | SMILES
1 to 30 µM | 0.1 to 0.999 µM | N#Cc1ccc(CCNC(=O)[C@@H]2CCCN2c2cc(-c3cccnc3)nc(C(F)(F)F)n2)cc1 [Compound 142, (S)-N-(4-cyanophenethyl)-1-(6-(pyridin-3-yl)-2-(trifluoromethyl)pyrimidin-4-yl)pyrrolidine-2-carboxamide]
1 to 30 µM | 0.1 to 0.999 µM | N#Cc1ccc(CCNC(=O)[C@@H]2CCCN2c2cc(-c3ccc(CN4CCOCC4)s3)nc(C(F)(F)F)n2)cc1 [Compound 168, (S)-N-(4-cyanophenethyl)-1-(6-(5-(morpholinomethyl)thiophen-2-yl)-2-(trifluoromethyl)pyrimidin-4-yl)pyrrolidine-2-carboxamide]
1 to 30 µM | 1 to 30 µM | CN(CC1CCN(c2cc(N3CCC[C@H]3C(=O)NCCc3ccc(C#N)cc3)nc(C(F)(F)F)n2)CC1)C(=O)OC(C)(C)C [Compound 20]
1 to 30 µM | 0.1 to 0.999 µM | N#Cc1ccc(CCNC(=O)[C@@H]2CCCN2c2cc(-c3ccoc3)nc(C(F)(F)F)n2)cc1 [Compound 164, (S)-N-(4-cyanophenethyl)-1-(6-(furan-3-yl)-2-(trifluoromethyl)pyrimidin-4-yl)pyrrolidine-2-carboxamide]
0.1 to 0.999 µM | 0.1 to 0.999 µM | N#Cc1ccc(CCNC(=O)[C@@H]2CCCN2c2cc(-c3ccncc3F)nc(C(F)(F)F)n2)cc1 [Compound 155, (S)-N-(4-cyanophenethyl)-1-(6-(3-fluoropyridin-4-yl)-2-(trifluoromethyl)pyrimidin-4-yl)pyrrolidine-2-carboxamide]
1 to 30 µM | 1 to 30 µM | N#Cc1ccc(CCNC(=O)[C@@H]2CCCN2c2cc(Nc3ccncc3)nc(C(F)(F)F)n2)cc1 [Compound 14]
1 to 30 µM | 0.1 to 0.999 µM | N#Cc1ccc(CCNC(=O)[C@@H]2CCCN2c2cc(OC3CCNCC3)nc(C(F)(F)F)n2)cc1 [Compound 51, (S)-N-(4-cyanophenethyl)-1-(6-(piperidin-4-yloxy)-2-(trifluoromethyl)pyrimidin-4-yl)pyrrolidine-2-carboxamide]
0.1 to 0.999 µM | 0.1 to 0.999 µM | CC(C)(C)OC(=O)NCCC1CCN(c2cc(N3CCC[C@H]3C(=O)NCCc3ccc(C#N)cc3)nc(C(F)(F)F)n2)CC1 [Compound 18]
0.1 to 0.999 µM | < 0.1 µM | CC(=O)N(C)CC1CCN(c2cc(N3CCC[C@H]3C(=O)NCCc3ccc(C#N)cc3)nc(C(F)(F)F)n2)CC1 [Compound 54, (S)-N-(4-cyanophenethyl)-1-(6-(4-((N-methylacetamido)methyl)piperidin-1-yl)-2-(trifluoromethyl)pyrimidin-4-yl)pyrrolidine-2-carboxamide]
< 0.1 µM | < 0.1 µM | N#Cc1ccc(CCNC(=O)C2CCN2c2cc(N3CCC(CO)CC3)nc(C(F)(F)F)n2)cc1 (centres unmarked) [Compound 241, N-(4-cyanophenethyl)-1-(6-(4-(hydroxymethyl)piperidin-1-yl)-2-(trifluoromethyl)pyrimidin-4-yl)azetidine-2-carboxamide]
0.1 to 0.999 µM | < 0.1 µM | CN1CCC(Oc2cc(N3CCC[C@H]3C(=O)NCCc3ccc(C#N)cc3)nc(C(F)(F)F)n2)CC1 [Compound 39, (S)—N-(4-cyanophenethyl)-1-(6-((1-methylpiperidin-4-yl)oxy)-2-(trifluoromethyl)pyrimidin-4-yl)pyrrolidine-2-carboxamide]
0.1 to 0.999 µM | 0.1 to 0.999 µM | N#Cc1ccc(CCNC(=O)[C@@H]2C[C@@H](O)CN2c2cc(N3CCC(CO)CC3)nc(C(F)(F)F)n2)cc1 [Compound 211, (2S,4R)-N-(4-cyanophenethyl)-4-hydroxy-1-(6-(4-(hydroxymethyl)piperidin-1-yl)-2-(trifluoromethyl)pyrimidin-4-yl)pyrrolidine-2-carboxamide]
